In patent US12121545B2, “Composition for a fecal-derived sterilized postbiotic in anti-aging and neurotherapeutic applications” (priority 2022, dated 2024):

What was measured:
C. elegans adult animals = assay: Lifespan of C. elegans adult animals (Kaplan-Meier survival); assay type: in vivo
Protocol: In a embodiments, organisms may include a vehicle control 204. In an embodiment, organisms may be treated with at least 0.05 mg/ml 208 of composition 100 and compared to a “vehicle control,” which as used in this disclosure, may include organisms not treated with composition 100. Lifespan data was represented as the percent of organism surviving over time, known as the Kaplan-Meier Estimate of Survival function.
Chart 212 illustrates the impact of resveratrol 216 at 100 μM; and rapamycin 220 at 50 μM; composition 100 at 0.05 mg/ml 208, 0.25 mg/ml 224, and 1.25 mg/ml 228; resveratrol at 100 μM; and rapamycin at 50 μM. In another non-limiting example, subjects, for instance, C. elegans, may be divided into five groups, with each group receiving a different concentration of composition (0.05 mg/mL 208, 0.25 mg/mL 224, or 1.25 mg/mL 228), vitamin C as a positive control (10 mM), or dimethyl sulfoxide (DMSO) as a negative control (0.05% DMSO).

Caenorhabditis elegans = assay: Oxidative stress tolerance after paraquat exposure; assay type: in vivo; details: 10 mM, positive control; over 24 hours post-exposure; negative control (DMSO) declined 41%
Text: Still referring to FIG. 1, composition 100 may be configured to improve oxidative stress tolerance, preserve mitochondrial function, support energy production, enhance cellular defense mechanisms against oxidative stress, stimulate endogenous antioxidants and enzymes, reduce oxidative stress and/or mitochondrial oxidative stress, improve mitochondrial function, improve healthspan, improve longevity, improve autophagy, increase autophagy, or the like. Oxidative stress and healthspan disclosed herein are further described below. For the purposes of this disclosure, “oxidative stress” is a physiological state characterized by an imbalance between the production of reactive oxygen species and the body's antioxidant defenses. In a non-limiting example, reactive oxygen species (ROS) can be generated endogenously as byproducts of cellular metabolism; for instance in the mitochondria. In another non-limiting example, ROS can be generated exogenously in the result of environmental pollutants, radiation, cigarette smoking, alcohol, certain foods, and drugs. In a healthy human, the body's antioxidant defenses can neutralize these molecules before they cause significant cellular damage. However, when their production overwhelms the body's capacity to neutralize and eliminate them, they can cause widespread cellular damage. […]

[1] = 50 μM, * p<0.05 vs negative control
[2] = 100 μM, * p<0.05 vs negative control

CO[C@H]1C[C@@H]2CC[C@@H](C)[C@@](O)(O2)C(=O)C(=O)N2CCCC[C@H]2C(=O)O[C@H]([C@H](C)C[C@@H]2CC[C@@H](O)[C@H](OC)C2)CC(=O)[C@H](C)/C=C(\C)[C@@H](O)[C@@H](OC)C(=O)[C@H](C)C[C@H](C)/C=C/C=C/C=C/1C [Rapamycin, rapamycin]
age at 25% Mortality (C. elegans adult animals; [1]): 24.6* days | age at 50% Mortality (median lifespan) (C. elegans adult animals; [1]): 29.5* days | age at 75% Mortality (C. elegans adult animals; [1]): 32.8* days | age at 90% Mortality (C. elegans adult animals; [1]): 35.7* days | age at 95% Mortality (C. elegans adult animals; [1]): 36.1* days

Oc1ccc(C=Cc2cc(O)cc(O)c2)cc1 [Resveratrol, resveratrol]
age at 90% Mortality (C. elegans adult animals; 100 μM): 30.2 days | age at 25% Mortality (C. elegans adult animals; [2]): 22.4* days | age at 50% Mortality (median lifespan) (C. elegans adult animals; [2]): 25.5* days | age at 75% Mortality (C. elegans adult animals; [2]): 28.3* days | age at 95% Mortality (C. elegans adult animals; [2]): 32.3* days

O=C1O[C@H]([C@@H](O)CO)C(O)=C1O [vitamin C]
average decline after paraquat-induced oxidative stress (Caenorhabditis elegans): 25%
